Read-outs that look alike come from different tables or passages of the source.
How the values were obtained:
[1] = target: T1, human α1β2 GABAA receptor (Homo sapiens, UniProt P14867+P47870); format: cell-based
T1 sequence (P14867 28-456): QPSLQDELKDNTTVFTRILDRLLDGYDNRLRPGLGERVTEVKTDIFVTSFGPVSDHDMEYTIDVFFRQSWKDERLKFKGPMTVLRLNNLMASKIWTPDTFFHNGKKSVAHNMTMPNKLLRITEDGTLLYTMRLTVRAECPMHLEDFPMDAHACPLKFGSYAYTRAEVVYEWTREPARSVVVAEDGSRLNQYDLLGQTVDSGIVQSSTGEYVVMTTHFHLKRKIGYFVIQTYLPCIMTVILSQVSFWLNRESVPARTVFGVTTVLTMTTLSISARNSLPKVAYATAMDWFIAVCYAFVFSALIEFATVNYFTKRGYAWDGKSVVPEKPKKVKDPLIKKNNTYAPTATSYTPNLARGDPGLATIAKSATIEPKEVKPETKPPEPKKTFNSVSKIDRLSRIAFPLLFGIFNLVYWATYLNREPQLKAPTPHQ
T1 sequence (P47870 25-512 limits assumed): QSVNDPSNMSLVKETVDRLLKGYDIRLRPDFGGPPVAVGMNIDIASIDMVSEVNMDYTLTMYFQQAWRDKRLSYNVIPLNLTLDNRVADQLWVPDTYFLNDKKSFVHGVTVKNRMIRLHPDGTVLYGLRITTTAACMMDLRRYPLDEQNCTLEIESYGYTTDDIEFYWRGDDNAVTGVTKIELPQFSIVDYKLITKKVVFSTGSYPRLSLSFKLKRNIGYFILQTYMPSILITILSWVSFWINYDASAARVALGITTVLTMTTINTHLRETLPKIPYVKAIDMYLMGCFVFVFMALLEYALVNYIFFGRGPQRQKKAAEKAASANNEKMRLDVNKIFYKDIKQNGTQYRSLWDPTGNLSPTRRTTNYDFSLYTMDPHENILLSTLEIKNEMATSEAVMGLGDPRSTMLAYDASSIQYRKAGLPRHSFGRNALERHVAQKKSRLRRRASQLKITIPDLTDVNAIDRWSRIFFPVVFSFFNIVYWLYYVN

[2] = target: human α2β2γ2 GABAA receptor (Homo sapiens, UniProt P18507+P47869+P47870, DEL377-384, form not given); experiment: Whole-cell patch clamp, HEK293 cells expressing α2β2γ2 GABAARs; format: cell-based
[3] = target: human α3β2γ2 GABAA receptor (Homo sapiens, UniProt P18507+P34903+P47870, DEL377-384, form not given); experiment: Whole-cell patch clamp, HEK293 cells expressing α3β2γ2 GABAARs; format: cell-based
[4] = target: human α6β2γ2 GABAA receptor (Homo sapiens, UniProt P18507+P47870+Q16445, DEL377-384, form not given); experiment: Whole-cell patch clamp, HEK293 cells expressing α6β2γ2 GABAARs; format: cell-based
[5] = target: human α1β1γ2 GABAA receptor (Homo sapiens, UniProt P14867+P18505+P18507, DEL377-384, form not given); experiment: Whole-cell patch clamp, HEK293 cells expressing α1β1γ2 GABAARs; format: cell-based
[6] = target: human α1β2γ2 GABAA receptor (Homo sapiens, UniProt P14867+P18507+P47870, DEL377-384, form not given); format: cell-based; conditions: for Enhancement of GABA current by carisoprodol, % of control: 100 µM CSP
[7] = target: rat α4β3δ GABAA receptor (Rattus norvegicus, UniProt P18506+P28471+P63079); experiment: Whole-cell patch clamp, HEK293 cells expressing extrasynaptic rat α4β3δ GABAARs; format: cell-based; conditions: for Potentiation of saturating (maximal) GABA currents: sub-gating concentration of drug
Chain of rat α4β3δ GABAA receptor (P28471 36-552): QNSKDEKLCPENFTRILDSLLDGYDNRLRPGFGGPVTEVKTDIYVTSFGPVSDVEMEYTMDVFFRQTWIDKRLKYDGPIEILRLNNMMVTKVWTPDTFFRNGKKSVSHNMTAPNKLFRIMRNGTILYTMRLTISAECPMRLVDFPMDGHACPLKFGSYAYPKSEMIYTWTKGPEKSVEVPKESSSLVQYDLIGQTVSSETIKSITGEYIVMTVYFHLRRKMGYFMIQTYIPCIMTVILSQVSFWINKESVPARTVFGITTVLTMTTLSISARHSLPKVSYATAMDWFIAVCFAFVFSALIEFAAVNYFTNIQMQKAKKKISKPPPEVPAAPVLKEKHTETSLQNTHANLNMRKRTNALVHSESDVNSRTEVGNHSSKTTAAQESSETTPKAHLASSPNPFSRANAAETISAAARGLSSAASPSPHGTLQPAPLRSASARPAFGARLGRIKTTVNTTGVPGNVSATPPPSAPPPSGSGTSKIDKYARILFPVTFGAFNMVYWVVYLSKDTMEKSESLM
Chain of rat α4β3δ GABAA receptor (P63079 26-473): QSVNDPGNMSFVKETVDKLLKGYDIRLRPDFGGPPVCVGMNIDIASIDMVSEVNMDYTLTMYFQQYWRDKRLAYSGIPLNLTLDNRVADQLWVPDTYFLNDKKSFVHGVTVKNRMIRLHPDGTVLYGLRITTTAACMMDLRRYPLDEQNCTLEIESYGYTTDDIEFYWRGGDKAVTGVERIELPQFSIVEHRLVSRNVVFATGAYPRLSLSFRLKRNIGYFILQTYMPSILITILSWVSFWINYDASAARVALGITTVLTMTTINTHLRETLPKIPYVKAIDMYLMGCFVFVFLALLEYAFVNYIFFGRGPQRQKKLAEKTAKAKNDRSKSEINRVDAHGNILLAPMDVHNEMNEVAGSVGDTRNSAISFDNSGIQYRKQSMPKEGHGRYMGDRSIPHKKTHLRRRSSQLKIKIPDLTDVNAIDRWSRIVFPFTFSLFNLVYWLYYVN
Chain of rat α4β3δ GABAA receptor (P18506 17-449 limits assumed): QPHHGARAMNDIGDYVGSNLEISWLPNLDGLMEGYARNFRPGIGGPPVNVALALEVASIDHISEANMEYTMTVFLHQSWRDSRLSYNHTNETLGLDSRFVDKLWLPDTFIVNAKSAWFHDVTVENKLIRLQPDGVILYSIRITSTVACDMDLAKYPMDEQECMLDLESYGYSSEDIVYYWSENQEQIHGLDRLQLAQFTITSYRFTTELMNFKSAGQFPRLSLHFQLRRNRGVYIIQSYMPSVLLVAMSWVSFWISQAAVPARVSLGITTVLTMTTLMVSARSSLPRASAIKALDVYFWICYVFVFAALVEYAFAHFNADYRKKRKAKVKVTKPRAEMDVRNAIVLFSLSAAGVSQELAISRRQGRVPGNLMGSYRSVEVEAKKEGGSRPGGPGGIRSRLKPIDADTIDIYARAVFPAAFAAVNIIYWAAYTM

[8] = target: T2, rat α1β3δ GABAA receptor (Rattus norvegicus, UniProt P18506+P62813+P63079); conditions: for Potentiation of saturating (maximal) GABA currents: sub-gating concentration of drug
T2 sequence (P62813 28-455): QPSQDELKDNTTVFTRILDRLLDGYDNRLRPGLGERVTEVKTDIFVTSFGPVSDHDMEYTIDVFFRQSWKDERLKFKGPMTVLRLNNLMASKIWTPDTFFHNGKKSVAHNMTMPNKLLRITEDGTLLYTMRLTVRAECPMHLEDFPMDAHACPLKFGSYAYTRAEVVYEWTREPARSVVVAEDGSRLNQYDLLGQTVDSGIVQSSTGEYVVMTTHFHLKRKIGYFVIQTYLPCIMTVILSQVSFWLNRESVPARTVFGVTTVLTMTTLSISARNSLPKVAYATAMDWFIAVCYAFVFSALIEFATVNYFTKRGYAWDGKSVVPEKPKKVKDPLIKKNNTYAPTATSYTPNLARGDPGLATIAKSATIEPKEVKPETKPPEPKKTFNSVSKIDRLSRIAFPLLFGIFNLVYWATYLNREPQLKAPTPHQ
T2 sequence (P63079 26-473): as the sequence (P63079 26-473) above
T2 sequence (P18506 17-449 limits assumed): as the sequence (P18506 17-449 limits assumed) above

[9] = tested on: αxβ2γ2 GABAA receptors, where x = α subunit 1–6; experiment: Whole-cell patch clamp, direct gating across αxβ2γ2 GABAA receptors; format: cell-based, human; conditions: range over α1–α6 β2γ2 receptors
[10] = target: T3, rat α1β3 GABAA receptor (Rattus norvegicus, UniProt P62813+P63079)
T3 sequence (P62813 28-455): as the sequence (P62813 28-455) above
T3 sequence (P63079 26-473): as the sequence (P63079 26-473) above

[11] = target: human α5β2γ2 GABAA receptor (Homo sapiens, UniProt P18507+P31644+P47870, DEL377-384, form not given); experiment: Whole-cell patch clamp, HEK293 cells expressing α5β2γ2 GABAARs; format: cell-based
[12] = target: T2, rat α1β3δ GABAA receptor; experiment: cell-based
[13] = case reports; ref McIntyre et al., 2012; Robertson and Marinetti, 2003; cited from earlier work
[14] = target: T3, rat α1β3 GABAA receptor; experiment: cell-based
[15] = single dose of 350 mg; ref Littrell et al., 1993; cited from earlier work
[16] = target: human α4β2γ2 GABAA receptor (Homo sapiens, UniProt P18507+P47870+P48169, DEL377-384, form not given); experiment: Whole-cell patch clamp, HEK293 cells expressing α4β2γ2 GABAARs; format: cell-based
[17] = target: rat α1β3γ2 GABAA receptor (Rattus norvegicus, UniProt P18508+P62813+P63079); experiment: Whole-cell patch clamp, HEK293 cells expressing rat α1β3γ2 GABAARs; format: cell-based
[18] = target: rat α1β2 GABAA receptor (Rattus norvegicus, UniProt P62813+P63138); experiment: Whole-cell patch clamp, HEK293 cells expressing rat α1β2 GABAARs; format: cell-based
Chain of rat α1β2 GABAA receptor (P62813 28-455): as the sequence (P62813 28-455) above
Chain of rat α1β2 GABAA receptor (P63138 25-474 limits assumed): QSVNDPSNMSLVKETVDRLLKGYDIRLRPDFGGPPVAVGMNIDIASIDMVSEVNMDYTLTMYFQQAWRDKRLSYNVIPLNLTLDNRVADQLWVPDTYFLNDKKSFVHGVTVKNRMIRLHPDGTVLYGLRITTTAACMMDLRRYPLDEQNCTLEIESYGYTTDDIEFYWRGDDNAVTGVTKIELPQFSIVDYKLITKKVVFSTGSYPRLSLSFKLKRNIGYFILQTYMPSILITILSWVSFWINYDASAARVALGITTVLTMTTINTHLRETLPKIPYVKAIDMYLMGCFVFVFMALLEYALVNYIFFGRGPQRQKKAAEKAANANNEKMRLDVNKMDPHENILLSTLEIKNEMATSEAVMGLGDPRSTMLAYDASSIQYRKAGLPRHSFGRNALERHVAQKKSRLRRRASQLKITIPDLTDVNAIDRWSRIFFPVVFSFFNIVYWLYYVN

[19] = maximum current by carisoprodol plus GABA (EC20) normalized to GABA (EC20) currents
[20] = normalized to maximum GABA gated currents
[21] = read-out: Carisoprodol direct gating EC50, relative to maximum current elicited by carisoprodol
[22] = read-out: EC50 for allosteric modulation by carisoprodol, in the presence of GABA (EC20)

In the case of `NCCCC(=O)O` [GABA, γ-aminobutyric acid], the “GABA Hill Coefficient” value ([1]; α1β2) is reported as 1.32 ± 0.11, the “GABA Hill Coefficient” value [2] is reported as 1.09 ± 0.12 and the “GABA Hill Coefficient” value [3] is reported as 1.04 ± 0.06. The “GABA Hill Coefficient” value [4] was 1.02 ± 0.12, the “GABA Hill Coefficient” value [5] was 1.17 ± 0.09 and the “GABA Hill Coefficient” value [6] was 1.32 ± 0.03. The “GABA current amplitude at +60 mV as % of that recorded at −60 mV (outward rectification)” value ([6]; lower concentrations of GABA) was 110%.
In the case of `Oc1noc2c1CCNC2` [THIP, 4,5,6,7-tetrahydroisoxazolo(5,4-c)pyridin-3-ol], the “THIP-gated currents, % of the amplitude of currents obtained with saturating GABA” value [7] is reported as 153.4 ± 10.7% and the “THIP-gated currents, % of the amplitude of currents obtained with saturating GABA” value ([8]; α1β3δ) is reported as 135.6 ± 7.2%.
With `CCCC(C)(COC(N)=O)COC(=O)NC(C)C` (stereo not shown) [carisoprodol, Carisoprodol] the EC50 ([1]; Carisoprodol direct gating EC50, α1β2, relative to maximum current elicited by carisoprodol) was 679 ± 24.3 µM, the EC50 ([1]; EC50 for allosteric modulation by carisoprodol, α1β2, in the presence of GABA (EC20)) was 87.4 ± 16.4 µM and the “Efficacy of allosteric modulation by carisoprodol” value (“Efficacy of allosteric modulation” below) ([1]; α1β2, maximum current by carisoprodol plus GABA (EC20) normalized to GABA (EC20) currents) was 346.7 ± 67.6%. The “Carisoprodol direct gating Efficacy” value ([1]; α1β2, normalized to maximum GABA gated currents) was 45.9 ±3%, the “Efficacy of allosteric modulation” value [2, 19] was 198.5 ± 9.5 % and the “Carisoprodol direct gating Efficacy” value [2, 20] was 30.1 ± 1.4%. The EC50 [2, 21] was 829 ± 50.2 µM, the EC50 [2, 22] was 64.9 ± 19.1 µM and the “Maximal carisoprodol-gated current, efficacy as % of maximal GABA-gated current” value [9] was 13–43%. The “CSP modulation Efficacy” value ([10]; rat α1β3, maximum current by carisoprodol plus GABA (EC20) normalized to GABA (EC20) currents) was 234.5 ± 18.9, the “CSP gating Efficacy” value ([10]; rat α1β3, normalized to maximum GABA gated currents) was 50.8 ± 6.24 and the “Potentiation of saturating (maximal) GABA currents” value (“Potentiation of saturating” below) ([10]; α1β3, sub-gating concentration of drug) was “not seen”. For the same compound, the “Efficacy of allosteric modulation” value [11, 19] was 247.6 ± 23.0 %, the “Carisoprodol direct gating Efficacy” value [11, 20] was 37.7 ± 3.5% and the EC50 [11, 21] was 835 ± 60.3 µM. For the same compound, the EC50 [11, 22] was 90.8 ± 14.7 µM, the EC50 ([12]; CSP gating EC50, rat α1β3δ, relative to maximum current elicited by carisoprodol) was 801 ± 24.2 µM and the EC50 ([12]; CSP modulation EC50, rat α1β3δ, in the presence of GABA (EC20)) was 109 ± 11.4 µM. The “Efficacy of allosteric modulation” value [3, 19] was 242.7 ± 35.1 %, the “Carisoprodol direct gating Efficacy” value [3, 20] was 13.4 ± 1.4 % and the EC50 [3, 21] was 1870 ± 92.4 µM. For the same compound, the EC50 [3, 22] was 63.7 ± 16.5 µM, the “Efficacy of allosteric modulation” value [4, 19] was 232.6 ± 26.9 % and the “Carisoprodol direct gating Efficacy” value [4, 20] was 36.8 ± 4.7%. For the same compound, the EC50 [4, 21] was 294 ± 28.1 µM, the EC50 [4, 22] was 79.8 ± 13.8 µM and the “Fatal blood or plasma concentration” value [13] was no less than 140 µM. For the same compound, the “Efficacy of allosteric modulation” value [5, 19] was 225.6 ± 14.6 %, the “Carisoprodol direct gating Efficacy” value [5, 20] was 69.7 ± 5.4 % and the EC50 [5, 21] was 729 ± 58.1 µM. It also gave an EC50 [5, 22] of 33.1 ± 4 µM, an EC50 ([14]; CSP gating EC50, rat α1β3, relative to maximum current elicited by carisoprodol) of 606 ± 25.3 µM and an EC50 ([14]; CSP modulation EC50, rat α1β3, in the presence of GABA (EC20)) of 135 ± 12.8 µM. The “Potentiation of saturating” value [7] was “significant potentiation of maximal GABA currents”, the “Onset of effects after administration” value [15] was no more than 30 min and the Plasma concentrations [15] was 4 to 7 µg/mL. The “Time in which plasma concentrations are reached” value [15] was 2 to 4 h, the “Efficacy of allosteric modulation” value [16, 19] was 240.0 ± 16.4 % and the “Carisoprodol direct gating Efficacy” value [16, 20] was 37.3 ± 5.0%. The EC50 [16, 21] was 758 ± 61.3 µM, the EC50 [16, 22] was 72.3 ± 10.1 µM and the EC50 ([17]; CSP modulation EC50, rat α1β3γ2, in the presence of GABA (EC20)) was 131 ± 12.4 µM. The “CSP gating Efficacy” value ([17]; rat α1β3γ2, normalized to maximum GABA gated currents) was 44.8 ± 3.23, the “Potentiation of saturating” value ([17]; α1β3γ2, sub-gating concentration of drug) was “not seen” and the “Enhancement of GABA current by carisoprodol, % of control” value ([6]; +60 mV) was 204.8 ± 5.3%. The “Enhancement of GABA current by carisoprodol, % of control” value ([6]; −60 mV) was 285.3 ± 17.7%, the “Mean carisoprodol direct gating effect, % of maximal GABA-gated current” value ([6]; 100 µM carisoprodol) was 2.8% and the “Voltage-dependence of direct gating effect” value ([6]; 1 mM CSP, −60 mV vs +60 mV) was “not impacted by membrane voltage”. For the same compound, the “Efficacy of allosteric modulation” value [6, 19] was 474.7 ± 53.5%, the EC50 [6, 21] was 686 ± 30.4 µM and the EC50 [6, 22] was 88.2 ± 19.9 µM. For the same compound, the EC50 ([18]; CSP gating EC50, rat α1β2, relative to maximum current elicited by carisoprodol) was 670 ± 22.2 µM, the EC50 ([18]; CSP modulation EC50, rat α1β2, in the presence of GABA (EC20)) was 120 ± 10.5 µM and the “CSP modulation Efficacy” value ([18]; rat α1β2, maximum current by carisoprodol plus GABA (EC20) normalized to GABA (EC20) currents) was 442.2 ± 27.7. For the same compound, the “CSP gating Efficacy” value ([18]; rat α1β2, normalized to maximum GABA gated currents) was 44.6 ± 4.85, the “CSP modulation Efficacy” value ([8]; rat α1β3δ, maximum current by carisoprodol plus GABA (EC20) normalized to GABA (EC20) currents) was 241.5 ± 25.1 and the “CSP gating Efficacy” value ([8]; rat α1β3δ, normalized to maximum GABA gated currents) was 128.7 ± 12.3. The “Carisoprodol direct gating efficacy relative to THIP” value ([8]; α1β3δ) was “roughly 90%” and the “Potentiation of saturating” value ([8]; α1β3δ) was “significant potentiation of maximal GABA currents”.
In the case of `CCCC(C)C1(CC)C(=O)NC(=O)NC1=O` (stereo not shown) [pentobarbital], the “Potentiation of saturating” value [7] is reported as “potentiation of saturating GABA currents” and the “Potentiation of saturating” value ([8]; α1β3δ) is reported as “potentiation of saturating GABA currents”.
